Values belong to the molecule of their own block, whether it stands above or below them.
Columns and labels:
[1] = test system: CYP enzymes that metabolise ribociclib in HLM (total metabolism; CYP-selective chemical inhibitors); assay: Inhibition of [3H] ribociclib total metabolism in HLM by CYP- and FMO-selective inhibitors; format: in vitro ADME; settings: both, human, human liver microsomes, pH 7.4, probe [3H] ribociclib
[2] = Human ADME study: quantitative metabolite profiling in plasma; format: in vivo; design: AUC0-48h: concentration or dose not given beside the values
Method: A plasma pool across the six healthy volunteers included in the study was prepared at the time points of 1 hour, 3 hours, 24 hours, and 48 hours post dose. For each time point, an equal volume of plasma was taken from each subject and combined. Plasma pool samples were processed by protein precipitation with acetonitrile. The protein pellet that resulted from precipitation with acetonitrile was washed further with additional aliquots of acetonitrile. All acetonitrile washes were combined and evaporated under nitrogen. For the 3‐ and 24‐hour plasma pools, the extraction procedure was slightly modified, including precipitation of the plasma proteins by addition of a 1:1 mixture of acetonitrile:methanol, followed by washing of the protein pellet with the same solvent mixture. All extracts were reconstituted with a solution of 15‐mM ammonium formate and acetonitrile (95:5 v/v). Extraction and reconstitution recoveries were measured in all four plasma samples in order to calculate and overall recovery. Quantitative metabolite profiling in plasma was accomplished using a Shimadzu Prominence high‐performance liquid chromatography (HPLC) system (Shimadzu, Columbia, MD, USA), coupled with fraction collection and analysis of total radioactivity in individual fractions using AMS (as described above). A second injection of each sample, conducted immediately after the first, was used to provide HPLC fractions for metabolite identification. The fractions identified as containing radioactivity from the AMS analysis were analyzed by HPLC coupled with high‐resolution mass spectrometry to identify the metabolites. The HPLC‐MS/MS methodology used is described below.

[3] = Contribution of metabolites to total pharmacological activity in human; settings: considering in vitro measurements and in vivo exposure
[4] = Human ADME study: quantitative metabolite profiling in urine and feces; format: in vivo; settings: for Excretion (% of dose), Total: urine plus feces, pooled excreta n=6
Method: Average pools across the six subjects were also created by combining equal percentages (of total urine and feces excreted over the time interval) of the individual subject pools. Urine pools were analyzed directly for metabolite profiling (column recovery of a representative sample was measured), whereas feces pools were subjected to extraction. Specifically, to each aliquot of feces homogenate, two volumes of acetonitrile were added. After centrifugation, the pellet was washed further with an additional two volumes of acetonitrile. […] All washes were combined, evaporated under nitrogen, and reconstituted with a solution of 15‐mM ammonium formate (pH 3.5). This feces extract reconstitute was analyzed for metabolite profiling. Combined extraction and reconstitution (overall recovery) and column recovery were measured. […] The HPLC column used was a Phenomenex Kinetex, C18, 250 × 4.6 mm, equipped with a pre‐column of the same type (2.1 × 4.6 mm), which was placed in a column oven at 40°C. […] The HPLC gradient was as follows: initial conditions were 5% mobile phase B for 1 minute, then increased to 20% at 10 minutes post injection where it was held (isocratic) up to 20 minutes. […] The post column flow was directed to the fraction collector operated in a time‐slice mode and containing 96‐well Lumaplates (Perkin Elmer). The plates were dried at room temperature and the radioactivity was measured using a microplate scintillation counter model TopCount NXT (Perkin Elmer) instrument (up to 3 × 100‐minute counting time). […] Metabolites were identified during the same injections using data generated by the high‐resolution mass spectrometer. The molecular ions and key fragments of each drug‐related component were determined. Key fragments for each metabolite were derived from their product ion mass spectra and were used to determine the metabolite structures. Where possible, structural assignments were supported by exact mass measurement, comparison with synthetic standards and/or Hydrogen/Deuterium (H/D) exchange LC‐MS(/MS).

[5] = substrate: CN(C)C(=O)c1cc2cnc(Nc3ccc(N4CCNCC4)cn3)nc2n1C1CCCC1; assay: Enzyme kinetics with recombinant CYP3A5 and scaling to HLM; format: in vitro ADME, human; settings: other: recombinant CYP3A5; 37.0 °C
Method: (§1) In vitro incubations were carried out in 100‐mM potassium phosphate buffer (pH 7.4) and 5‐mM MgCl2 with a total volume of 200 µL. Substrate and either human liver microsomes (HLM, BD Biosciences, mixed gender pool of n = 50) or recombinant human enzymes (BD Biosciences) were added and pre‐incubated for 3 minutes at 37°C. The reaction was started by addition of a fresh solution of NADPH (1 mmol/L final concentration). The samples were incubated at 37°C with agitation of 500 rpm. For incubations with CYP2A6, CYP2C9, CYP2C18, and CYP4A11, the phosphate buffer was replaced by TRIS buffer (100 mmol/L, pH 7.4) and for flavin‐containing monooxygenases (FMOs), a glycine buffer (50 mM, pH 9.5) was used.
(§2) The enzymatic reaction was stopped and the protein was precipitated by addition of an equal volume of methanol. After 30 min at −80°C, the samples were centrifuged at 30'000 x g for 15 min. The supernatant was withdrawn. Aliquots were analyzed by LSC and the supernatant was diluted with water to obtain a final solution containing less than 20% of the organic solvent. For samples of low substrate concentration, supernatants were evaporated to dryness under nitrogen, then re‐suspended in water containing less than 20% of methanol. Samples were analyzed by HPLC combined with radiodetection.
(§3) The relative contribution of CYP enzymes to oxidative hepatic metabolism was determined using their Clint values multiplied by the unbound fraction in microsomes and their abundances in human liver microsomes. ^15 Among the hepatic P450 enzymes, CYP3A4 contributed predominantly (97%) to metabolism in human liver microsomes (Table 1) with negligible fraction metabolized by CYP1A2 (1.1%), CYP2J2 (0.8%), and CYP3A5 (1.2%).

[6] = substrate: CN(C)C(=O)c1cc2cnc(Nc3ccc(N4CCNCC4)cn3)nc2n1C1CCCC1; assay: Enzyme kinetics with recombinant CYP1A2 and scaling to HLM; format: in vitro ADME, human; settings: other: recombinant CYP1A2; 37.0 °C
Method: as §1, §2, §3

[7] = human plasma pools n=6, from metabolite patterns

Molecule: CC[C@]1(C)C[C@@H](OC(=O)CSc2nnc(N)[nH]2)[C@]2(C)[C@H](C)CC[C@]3(CCC(=O)[C@H]32)[C@@H](C)[C@@H]1O [Azamulin]
IC50 [1]: 1050 nM

Molecule: CN(C)C(=O)c1cc2cnc(Nc3ccc(N4CCN(S(=O)(=O)O)CC4)cn3)nc2n1C1CCCC1 [M8 (CQM386)]
Excretion (% of dose), Total [4]: < 5.21 % of dose
AUC0-48h [2, 7]: 0.0142 µM·h
AUC0-48h, % of total [14C]-AUC0-48 [2, 7]: 0.0297%
Concentration in plasma pool ([2]; human, 1 h post dose, pool n=6, from metabolite patterns): 9.50 nM

B1: CYP3A5 (Homo sapiens) (protein)
chain: MDLIPNLAVETWLLLAVSLVLLYLYGTRTHGLFKRLGIPGPTPLPLLGNVLSYRQGLWKFDTECYKKYGKMWGTYEGQLPVLAITDPDVIRTVLVKECYSVFTNRRSLGPVGFMKSAISLAEDEEWKRIRSLLSPTFTSGKLKEMFPIIAQYGDVLVRNLRREAEKGKPVTLKDIFGAYSMDVITGTSFGVNIDSLNNPQDPFVESTKKFLKFGFLDPLFLSIILFPFLTPVFEALNVSLFPKDTINFLSKSVNRMKKSRLNDKQKHRLDFLQLMIDSQNSKETESHKALSDLELAAQSIIFIFAGYETTSSVLSFTLYELATHPDVQQKLQKEIDAVLPNKAPPTYDAVVQMEYLDMVVNETLRLFPVAIRLERTCKKDVEINGVFIPKGSMVVIPTYALHHDPKYWTEPEEFRPERFSKKKDSIDPYIYTPFGTGPRNCIGMRFALMNMKLALIRVLQNFSFKPCKETQIPLKLDTQGLLQPEKPIVLKVDSRDGTLSGE
notes: purchased BD Biosciences
Km [5]: 23.9 µM
kcat [5]: 0.0122 s⁻¹
kcat/Km [5]: 517 M⁻¹ s⁻¹

B2: CYP1A2 (Homo sapiens) (protein)
chain: MALSQSVPFSATELLLASAIFCLVFWVLKGLRPRVPKGLKSPPEPWGWPLLGHVLTLGKNPHLALSRMSQRYGDVLQIRIGSTPVLVLSRLDTIRQALVRQGDDFKGRPDLYTSTLITDGQSLTFSTDSGPVWAARRRLAQNALNTFSIASDPASSSSCYLEEHVSKEAKALISRLQELMAGPGHFDPYNQVVVSVANVIGAMCFGQHFPESSDEMLSLVKNTHEFVETASSGNPLDFFPILRYLPNPALQRFKAFNQRFLWFLQKTVQEHYQDFDKNSVRDITGALFKHSKKGPRASGNLIPQEKIVNLVNDIFGAGFDTVTTAISWSLMYLVTKPEIQRKIQKELDTVIGRERRPRLSDRPQLPYLEAFILETFRHSSFLPFTIPHSTTRDTTLNGFYIPKKCCVFVNQWQVNHDPELWEDPSEFRPERFLTADGTAINKPLSEKMMLFGMGKRRCIGEVLAKWEIFLFLAILLQQLEFSVPPGVKVDLTPIYGLTMKHARCEHVQARLRFSIN
notes: purchased BD Biosciences
Km [6]: 48 µM
kcat [6]: 0.0185 s⁻¹
kcat/Km [6]: 383 M⁻¹ s⁻¹

Second part, led by results:

AUC0-48h, % of total [14C]-AUC0-48 [2, 7]: 9.39%
metabolite exposure as % of ribociclib exposure ([2]; human plasma, AUC0-48): 21.6%
Molecule: CN(C)C(=O)c1cc2cnc(Nc3ccc(N4CCN(O)CC4)cn3)nc2n1C1CCCC1 [M13 (CCI284)]
contribution to total pharmacological activity in human [3]: not to have a relevant contribution to total pharmacological activity

IC50 [1]: > 2000 nM
Molecule: CC(C)(O)c1ccccc1CC[C@@H](SCC1(CC(=O)O)CC1)c1cccc(/C=C/c2ccc3ccc(Cl)cc3n2)c1 [Montelukast]

Excretion (% of dose), Urine ([4]; pooled excreta n=6, from metabolite patterns (radio profiling)): 1.50 % of dose
Excretion (% of dose), Total [4]: 1.50 % of dose
detection in plasma (AMS metabolite profiling) ([2]; human plasma): not observed in plasma
Molecule: CN(CO)C(=O)c1cc2cnc(Nc3ccc(N4CCNCC4)cn3)nc2n1C1CCCC1 [M15]

Source: paper PMC7287031 (Pharmacology Research & Perspectives, 2020)
